In the test the test system is DUX4. The test can be described thus: DUX4 transcript levels in FSHD primary muscle cell cultures treated with PR-619. The test is classed as cell-based. The conditions noted are these: DUX4 expressing human primary FSHD myoblasts; 5 μM, 10 μM and 20 μM. The method, then:
To further confirm the hypothesis that sumoylation is relevant for repression of DUX4, PR619 was used as inhibitor for the removal of SUMO substrates from their proteins. PR619 is a non-selective inhibitor of deubiquitinases and ubiquitin-like isopeptidases (like the family of SENP isopeptidases). […] DUX4 expressing human primary FSHD myoblasts were treated with 3 different concentrations of PR619 (5 μM, 10 μM and 20 μM) and cells were harvested for RNA isolation. […] Thus PR619 treatment of DUX4 expressing primary FSHD myotubes leads to DUX4 downregulation.
Human primary myoblast cell lines were originating from the University of Rochester bio repository (http://www.urmc.rochester.edu/fields-center/). Muscle samples were obtained after subjects were consented under a protocol approved by the institutional review board at the University of Rochester. […]
Myoblast and myotube samples were harvested for RNA isolation by adding QIAzol lysis reagent (#79306 Qiagen N.V., Venlo, The Netherlands). […] Gene specific cDNA products were quantified by qPCR in duplicate using SYBR green master mix supplemented with gene specific primers (table S2) using the CFX96 system (Bio-Rad, Veenendaal, The Netherlands). Data were analyzed by Bio-Rad CFX manager version 3.0 (Bio-Rad) using GAPDH and GUSB as reference genes.

On to `N#CSc1cc(SC#N)c(N)nc1N` [PR-619, 2,6-Diamino-3,5-dithiocyanopyridine], for which the DUX4 transcript levels entry was “decreased in cells treated with PR-619 in a dose dependent manner”.

These data come from patent publication US20180147256A1, “MEANS AND METHODS FOR TREATING FACIOSCAPULOHUMERAL MUSCULAR DYSTROPHY (FSHD)” (ACADEMISCH ZIEKENHUIS LEIDEN H.O.D.N. LUMC, priority 2015, published 2018).
